Counter-ions that a name gives are not always drawn.
Row | SMILES | melting point [°C]
1 | CCCCC(NCc1ccccc1)c1nc(-c2ccc(-c3ccccc3)cc2)c[nH]1 (racemic) [Example 60, (R,S)—N-benzyl-1-(4-[1,1′-biphenyl]4-yl-1H-imidazol-2-yl)-1-pentanamine] | 201 to 203
2 | CC(C)(C)c1cc(-c2c[nH]c([C@@H](N)C3CCCCC3)n2)cc(C(C)(C)C)c1O (as salt: hydrochloride) [Example 316, 4-{2-[(S)-amino(cyclohexyl)methyl]-1H-imidazol-4-yl}-2,6-ditert-butylphenol] | 222 to 228
3 | CC(C)(C)OC(=O)NCCCc1nc(-c2ccc(-c3ccccc3)cc2)c[nH]1 [Example 171, 4-(2-{3-[(tert-butoxycarbonyl)amino]propyl}-1H-imidazol-4-yl)-1,1′-biphenyl] | 145 to 146
4 | CC(C)C[C@H](N)c1nc(-c2ccccc2)c[nH]1 (as salt: hydrochloride) [Example 56, (1S)-3-methyl-1-(4-phenyl-1H-imidazol-2-yl)-1-butanamine] | 150 to 152
5 | O=C(NCCc1nc(-c2ccc(-c3ccc(Br)cc3)cc2)c[nH]1)OCC1CCC1 (as salt: hydrochloride) [Example 337, cyclobutylmethyl 2-[4-(4′-bromo-1,1′-biphenyl-4-yl)-1H-imidazol-2-yl]ethylcarbamate] | 214 to 215
6 | CN(Cc1nc(-c2ccc(-c3ccccc3)cc2)c[nH]1)C(=O)OC(C)(C)C [Example 149, 4-(2-{[(tert-butoxycarbonyl)(methyl)amino]methyl}-1H-imidazol-4-yl)-1,1′-biphenyl] | 72 to 74
7 | COc1ccc(-c2c[nH]c(CCNC(=O)OCCC(C)(C)C)n2)cc1 [Example 388, 3,3-dimethylbutyl 2-[4-(4-methoxyphenyl)-1H-imidazol-2-yl]ethylcarbamate] | 116.8
8 | CCCCCCC(NCc1ccccc1)c1nc(-c2ccc(C)cc2)c[nH]1 (racemic) (as salt: hydrochloride) [Example 200, (R,S)-N-benzyl-1-[4-(4-methylphenyl)-1H-imidazol-2-yl]-1-heptanamine] | 185 to 188
9 | CC(C)(C)COC(=O)NCCc1nc(-c2ccc(-c3ccccc3)cc2)c[nH]1 [Example 203, 4-[2-(2-{[(neopentyloxy)carbonyl]amino}ethyl)-1H-imidazol-4-yl]-1,1′-biphenyl] | 162 to 164
10 | c1ccc(CNC(c2ccccc2)c2nc(-c3ccccc3)c[nH]2)cc1 (racemic) [Example 133, (R,S)-N-benzyl(phenyl)(4-phenyl-1H-imidazol-2-yl)methanamine] | 144 to 146
11 | Fc1ccc(-c2c[nH]c([C@@H](NCC3CCCCC3)C3CCCCC3)n2)cc1 [Example 293, (S)-1-cyclohexyl-N-(cyclohexylmethyl)-1-[4-(4-fluorophenyl)-1H-imidazol-2-yl]methanamine] | 184.8
12 | CCCCCCC(N)c1nc(-c2ccc(C#N)cc2)c[nH]1 (racemic) (as salt: hydrochloride) [Example 205, (R,S)-4-[2-(1-aminoheptyl)-1H-imidazol-4-yl]benzonitrile] | 218 to 220
13 | N[C@H](c1nc(-c2ccccc2)c[nH]1)C1CCCCC1 (as salt: hydrochloride) [Example 80, (S)-cyclohexyl(4-phenyl-1H-imidazol-2-yl)methylamine] | 208 to 210
14 | N[C@H](CC1CCCCC1)c1nc(-c2ccc(-c3ccccc3)cc2)c[nH]1 (as salt: hydrochloride) [Example 154] | 178 to 180
15 | NCc1nc(-c2ccc(-c3ccccc3)cc2)c[nH]1 (as salt: hydrochloride) [Example 141, (4-[1,1′-biphenyl]4-yl-1H-imidazol-2-yl)methanamine] | 240 to 242
16 | CN(Cc1ccccc1)Cc1nc(-c2ccc(-c3ccccc3)cc2)c[nH]1 [Example 42, N-benzyl(4-[1,1′-biphenyl]-4-yl-1H-imidazol-2-yl)-N-methylmethanamine] | 106 to 108
17 | C#CCN(C)Cc1nc(-c2cc(C(C)(C)C)c(O)c(C(C)(C)C)c2)cs1 [Example 2, 2,6-di(tert-butyl)-4-(2-{[methyl(2-propynyl)amino]methyl}-1,3-thiazol-4-yl)phenol] | 210 to 215
18 | CCCCCCC(NC1CCCCC1)c1nc(C2CCCCC2)c[nH]1 (centres unmarked) [Example 36, N-[1-(4-cyclohexyl-1H-imidazol-2-yl)heptyl]cyclohexanamine] | 172 to 174
19 | CCCCCCC(NC(=O)OC(C)(C)C)c1nc(-c2ccc(-c3ccccc3)cc2)c[nH]1 (racemic) [Example 192, (R,S)-4-(2-{1-[(tert-butoxycarbonyl)amino]heptyl}-1H-imidazol-4-yl)-1,1′-biphenyl] | 142 to 144
20 | c1ccc(-c2c[nH]c([C@@H](NC3CCC3)C3CCCCC3)n2)cc1 (as salt: hydrochloride) [Example 83, N-[(S)-cyclohexyl(4-phenyl-1H-imidazol-2-yl)methyl]-cyclobutanamine] | 210 to 212
21 | CC(C)COC(=O)NCCc1nc(-c2ccc(-c3ccccc3)cc2)c[nH]1 [Example 239, 4-(2-{2-[(isobutoxycarbonyl)amino]ethyl}-1H-imidazol-4-yl)-1,1′-biphenyl] | 134 to 135
22 | CC(C)(C)c1cc(-c2c[nH]c(CCNC(=O)OCc3ccccc3)n2)cc(C(C)(C)C)c1O [Example 389, benzyl 2-[4-(3,5-ditert-butyl-4-hydroxyphenyl)-1H-imidazol-2-yl]ethylcarbamate] | 177.5
23 | CC(C)COC(=O)NCCc1nc(-c2ccc(-c3ccc(Br)cc3)cc2)c[nH]1 [Example 338, isobutyl 2-[4-(4′-bromo-1,1′-biphenyl-4-yl)-1H-imidazol-2-yl]ethylcarbamate] | 158.7
24 | CC(C)(NCc1ccccc1)c1nc(-c2ccccc2)c[nH]1 [Example 139, N-benzyl-2-(4-phenyl-1H-imidazol-2-yl)-2-propanamine] | 136 to 138
25 | CC(C)(C)c1ccc(-c2c[nH]c(CCNC(=O)OCC3CCCCC3)n2)cc1 [Example 302, cyclohexylmethyl 2-[4-(4-tert-butylphenyl)-1H-imidazol-2-yl]ethylcarbamate] | 104 to 106
26 | NCc1nc(-c2ccccc2)cn1Cc1ccccc1 (as salt: hydrochloride) [Example 107, (1-benzyl-4-phenyl-1H-imidazol-2-yl)methanamine] | 248 to 250
27 | COC(=O)NCCc1nc(-c2ccc(-c3ccccc3)cc2)c[nH]1 [Example 244, 4-(2-{2-[(methoxycarbonyl)amino]ethyl}-1H-imidazol-4-yl)-1,1′-biphenyl] | 177.2
28 | Fc1ccc(-c2c[nH]c([C@@H](NCC3CCCCC3)C3CCCCC3)n2)cc1 (as salt: hydrochloride) [Example 295, (S)-1-cyclohexyl-N-(cyclohexylmethyl)-1-[4-(4-fluorophenyl)-1H-imidazol-2-yl]methanamine] | 190 to 192
29 | CCCCCCOC(=O)NCCc1nc(-c2ccc(-c3ccc(Br)cc3)cc2)c[nH]1 [Example 381, hexyl 2-[4-(4′-bromo-1,1′-biphenyl-4-yl)-1H-imidazol-2-yl]ethylcarbamate] | 138 to 140

— patent publication US7291641B2, “Derivatives of heterocycles with 5 members, their preparation and their use as medicaments” (Societe de Conseils de Recherches et d'Applications …, priority 1999, dated 2007)
